Experimental data from patent publication US6472530B1, “Benzo-fused dithiepino[6,5-b]pyridines, and related compositions and methods” (Ortho-McNeil Pharmaceutical, Inc., priority 1999, dated 2002).
Where two headings read alike, the source gives them in different places.

Target: T1, calcium channel (Oryctolagus cuniculus, UniProt P15381)
T1 construct: from tissue; host or cells: rabbit heart membrane preparation
Assay: Assay for Inhibition of Nitrendipine Binding (3H-nitrendipine, heart membranes)
Set-up: species or system rabbit
Details: 3H-nitrendipine displacement, rabbit heart membranes
Procedure: Assay for Inhibition of Nitrendipine Binding
Female, New Zealand white rabbits (1-2 kg) are sacrificed by cervical dislocation, and the heart is immediately removed, cleaned and chopped into small pieces. The tissue is homogenized in 5×times volume of 0.05M Hepes buffer, pH 7.4. The homogenate is centrifuged at 4000 g for 10 minutes, and the supernatant is re-centrifuged at 42,000×g for 90 minutes. The resulting membrane pellet is resuspended (0.7 ml/g weight) in 0.05M Hepes, pH 7.4 and stored at […] until used. Each tube of the binding assay contains ^3H-nitrendipine (0.05-0.50 nM), buffer, membranes (0.10 ml), and test compound in a total volume of 1.0 ml. After 90 minutes at 4° C., the bound nitrendipine is separated from the unbound by filtration on Whatman GF/C filters. After rinsing, the filters are dried and counted in a liquid scintillation counter.
Non-specific binding of ^3H-nitrendipine (that amount bound in the presence of excess unlabelled nitrendipine) is subtracted from the total bound to obtain specifically bound radiolabeled nitrendipine. The amount of specifically bound nitrendipine in the presence of a test compound is compared to that amount bound in the absence of a compound. A percent displacement (or inhibition) can then be calculated.

[1] = Table 1, compounds of Formula I, read-out: Nitrendipine Binding Assay IC50
[2] = Table 2, compounds of Formula II, read-out: Nitrendipine Binding IC50

T1 sequence (P15381 whole entry, other chains not shown): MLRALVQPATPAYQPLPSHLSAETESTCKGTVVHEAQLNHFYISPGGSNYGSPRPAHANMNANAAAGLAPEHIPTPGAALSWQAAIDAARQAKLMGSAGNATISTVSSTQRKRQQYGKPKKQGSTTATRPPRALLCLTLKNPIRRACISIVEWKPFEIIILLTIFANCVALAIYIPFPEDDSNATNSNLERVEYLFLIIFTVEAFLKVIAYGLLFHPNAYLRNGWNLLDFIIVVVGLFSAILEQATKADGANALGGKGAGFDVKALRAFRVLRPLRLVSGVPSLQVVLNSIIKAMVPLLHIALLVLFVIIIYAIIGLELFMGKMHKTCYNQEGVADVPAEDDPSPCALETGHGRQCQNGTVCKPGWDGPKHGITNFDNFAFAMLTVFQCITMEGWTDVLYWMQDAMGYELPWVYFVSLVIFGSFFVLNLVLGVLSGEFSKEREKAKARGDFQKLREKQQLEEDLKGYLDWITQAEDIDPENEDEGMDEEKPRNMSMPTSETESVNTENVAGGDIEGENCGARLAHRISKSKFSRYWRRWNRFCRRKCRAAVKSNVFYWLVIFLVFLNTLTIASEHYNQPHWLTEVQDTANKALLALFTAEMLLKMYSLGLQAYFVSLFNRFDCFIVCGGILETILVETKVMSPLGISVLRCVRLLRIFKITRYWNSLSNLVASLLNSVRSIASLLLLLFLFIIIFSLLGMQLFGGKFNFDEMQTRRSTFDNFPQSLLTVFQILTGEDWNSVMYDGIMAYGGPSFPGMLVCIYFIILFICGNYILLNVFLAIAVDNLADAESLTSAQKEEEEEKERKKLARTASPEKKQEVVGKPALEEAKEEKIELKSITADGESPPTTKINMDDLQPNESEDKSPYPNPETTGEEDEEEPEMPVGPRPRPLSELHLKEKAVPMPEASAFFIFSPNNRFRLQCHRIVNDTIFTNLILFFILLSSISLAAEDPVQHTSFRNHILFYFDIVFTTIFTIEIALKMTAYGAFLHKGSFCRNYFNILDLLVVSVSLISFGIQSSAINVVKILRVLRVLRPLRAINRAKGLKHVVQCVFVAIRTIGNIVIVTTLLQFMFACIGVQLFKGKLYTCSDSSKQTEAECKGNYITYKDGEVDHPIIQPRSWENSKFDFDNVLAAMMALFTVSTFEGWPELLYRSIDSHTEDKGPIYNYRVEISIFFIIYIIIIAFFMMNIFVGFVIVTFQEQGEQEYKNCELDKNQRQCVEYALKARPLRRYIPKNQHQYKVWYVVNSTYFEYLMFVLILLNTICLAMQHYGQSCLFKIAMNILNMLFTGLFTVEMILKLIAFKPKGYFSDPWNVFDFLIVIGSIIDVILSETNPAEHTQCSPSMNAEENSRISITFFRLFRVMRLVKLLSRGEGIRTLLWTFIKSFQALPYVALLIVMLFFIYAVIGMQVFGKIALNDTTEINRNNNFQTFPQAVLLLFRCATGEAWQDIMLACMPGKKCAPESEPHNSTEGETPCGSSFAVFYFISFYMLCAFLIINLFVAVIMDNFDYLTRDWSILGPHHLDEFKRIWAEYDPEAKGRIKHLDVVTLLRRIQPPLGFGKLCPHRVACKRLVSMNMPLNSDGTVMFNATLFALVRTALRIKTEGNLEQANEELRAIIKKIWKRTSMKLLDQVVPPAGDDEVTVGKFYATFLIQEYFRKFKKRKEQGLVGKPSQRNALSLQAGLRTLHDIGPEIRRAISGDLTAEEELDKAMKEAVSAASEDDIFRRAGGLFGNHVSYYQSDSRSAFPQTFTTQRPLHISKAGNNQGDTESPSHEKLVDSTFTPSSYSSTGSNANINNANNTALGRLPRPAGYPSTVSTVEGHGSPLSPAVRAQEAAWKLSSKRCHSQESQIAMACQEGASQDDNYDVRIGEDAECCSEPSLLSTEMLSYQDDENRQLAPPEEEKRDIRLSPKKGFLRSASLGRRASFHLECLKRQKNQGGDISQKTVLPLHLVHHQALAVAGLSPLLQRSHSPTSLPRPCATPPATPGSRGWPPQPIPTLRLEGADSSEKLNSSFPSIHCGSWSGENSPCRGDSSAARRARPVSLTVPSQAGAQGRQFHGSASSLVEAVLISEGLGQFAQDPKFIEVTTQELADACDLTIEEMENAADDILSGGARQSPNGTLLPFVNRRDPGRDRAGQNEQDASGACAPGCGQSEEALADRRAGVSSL
T1 sequence (P13806 27-960 partner limits assumed, other chains not shown): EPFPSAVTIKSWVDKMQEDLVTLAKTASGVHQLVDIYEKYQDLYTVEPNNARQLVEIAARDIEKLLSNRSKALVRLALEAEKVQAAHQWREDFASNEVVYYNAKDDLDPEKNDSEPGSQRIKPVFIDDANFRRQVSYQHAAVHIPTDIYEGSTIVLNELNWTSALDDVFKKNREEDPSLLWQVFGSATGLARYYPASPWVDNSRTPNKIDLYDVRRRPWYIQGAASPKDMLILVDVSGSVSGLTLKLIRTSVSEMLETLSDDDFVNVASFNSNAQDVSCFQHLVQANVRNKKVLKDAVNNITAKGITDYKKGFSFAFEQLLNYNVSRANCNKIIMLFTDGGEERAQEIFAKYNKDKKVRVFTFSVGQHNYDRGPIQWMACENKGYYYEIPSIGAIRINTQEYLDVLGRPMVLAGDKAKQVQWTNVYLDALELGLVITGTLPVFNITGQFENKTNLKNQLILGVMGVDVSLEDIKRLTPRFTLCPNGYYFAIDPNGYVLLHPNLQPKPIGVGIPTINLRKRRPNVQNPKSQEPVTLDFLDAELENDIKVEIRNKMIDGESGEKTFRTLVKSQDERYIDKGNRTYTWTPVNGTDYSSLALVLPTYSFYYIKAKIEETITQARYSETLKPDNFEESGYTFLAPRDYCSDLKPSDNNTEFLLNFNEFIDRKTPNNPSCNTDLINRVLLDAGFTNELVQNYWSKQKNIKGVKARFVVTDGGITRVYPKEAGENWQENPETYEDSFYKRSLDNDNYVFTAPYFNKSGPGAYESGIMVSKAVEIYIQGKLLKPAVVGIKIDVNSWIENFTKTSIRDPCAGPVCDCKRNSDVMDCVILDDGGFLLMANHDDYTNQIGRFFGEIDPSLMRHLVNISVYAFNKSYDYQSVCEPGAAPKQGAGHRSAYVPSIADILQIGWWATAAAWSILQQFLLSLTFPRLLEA
T1 sequence (P13806 961-1106 partner limits assumed, other chains not shown): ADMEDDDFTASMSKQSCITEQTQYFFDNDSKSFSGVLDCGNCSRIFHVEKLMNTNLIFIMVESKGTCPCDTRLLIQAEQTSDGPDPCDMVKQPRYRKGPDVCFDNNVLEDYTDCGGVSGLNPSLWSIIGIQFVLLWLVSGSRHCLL

IC50 [1] [nM] | IC50 [2] [nM] | SMILES
– | 859 | CC1=C(C(=O)OCCNC(=O)c2ccccc2)C(c2c(F)cccc2Cl)C2=C(CS(=O)(=O)c3ccccc3S2(=O)=O)N1 (stereo not shown) [Compound 29, 1H-[1,5]benzodithiepino[3,2-b]pyridine-3-carboxylic acid, 4-(2-chloro-6-fluorophenyl)-4,11-dihydro-2-methyl-, 2-(benzoylamino)ethyl ester, 5,5,10,10-tetraoxide]
– | 1440 | CC1=C(C(=O)OCCCO)C(c2c(F)cccc2Cl)C2=C(CS(=O)(=O)c3ccccc3S2(=O)=O)N1 (stereo not shown) [Compound 33]
– | 188 | CC1=C(C(=O)OCCCOC(=O)c2ccccc2)C(c2c(F)cccc2Cl)C2=C(CS(=O)(=O)c3ccccc3S2(=O)=O)N1 (stereo not shown) [Compound 34]
– | 11 | CC1=C(C(=O)OCc2oc(=O)oc2-c2ccccc2)C(c2c(F)cccc2Cl)C2=C(CS(=O)(=O)c3ccccc3S2(=O)=O)N1 (stereo not shown) [Compound 40]
– | 2000 | CC1=C(C(=O)OCCN)C(c2c(F)cccc2Cl)C2=C(CS(=O)(=O)c3ccccc3S2(=O)=O)N1 (stereo not shown) [Compound 26, 1H-[1,5]benzodithiepino[3,2-b]pyridine-3-carboxylic acid, 4-(2-chloro-6-fluorophenyl)-4,11-dihydro-2-methyl-, 2-aminoethyl ester, 5,5,10,10-tetraoxide]
– | 6070 | CC1=C(C(=O)OCCO)C(c2c(F)cccc2Cl)C2=C(CS(=O)(=O)c3ccccc3S2(=O)=O)N1 (stereo not shown) [Compound 21]
– | 180 | CC(=O)OCCOC(=O)C1=C(C)NC2=C(C1c1c(F)cccc1Cl)S(=O)(=O)c1ccccc1S(=O)(=O)C2 (stereo not shown) [Compound 22, 1H-[1,5]benzodithiepino[3,2-b]pyridine-3-carboxylic acid, 4-(2-chloro-6-fluorophenyl)-4,11-dihydro-2-methyl-, 2-(acetyloxy)ethyl ester, 5,5,10,10-tetraoxide]
– | 30 | CC1=C(C(=O)OCCOC(=O)c2ccccc2)C(c2c(F)cccc2Cl)C2=C(CS(=O)(=O)c3ccccc3S2(=O)=O)N1 (stereo not shown) [Compound 23, 1H-[1,5]benzodithiepino[3,2-b]pyridine-3-carboxylic acid, 4-(2-chloro-6-fluorophenyl)-4,11-dihydro-2-methyl-, 2-(benzoyloxy)ethyl ester, 5,5,10,10-tetraoxide]
– | 60 | CC1=C(C(=O)OCCOC(=O)CCCCCCc2ccccc2)C(c2c(F)cccc2Cl)C2=C(CS(=O)(=O)c3ccccc3S2(=O)=O)N1 (stereo not shown) [Compound 35]
– | 26 | CC1=C(C(=O)OCCOC(=O)C(C)C)C(c2c(F)cccc2Cl)C2=C(CS(=O)(=O)c3ccccc3S2(=O)=O)N1 (stereo not shown) [Compound 27]

Second part, the compound before the results:

SMILES | IC50 [1] [nM] | IC50 [2] [nM]
CC1=C(C(=O)OCCN(C)Cc2ccccc2)C(c2ccccc2[N+](=O)[O-])C2=C(CS(=O)(=O)c3ccccc3S2(=O)=O)N1 (stereo not shown) [Compound 3, 1H-[1,5]Benzodithiepino[3,2-b]pyridine-3-carboxylic acid, 4,11-dihydro-2-methyl-4-(2-nitrophenyl), 2-[methyl(phenylmethyl)amino]ethyl ester, 5,5,10,10-tetraoxide] | 34 | –
CC1=C(C(=O)OCCN(C)Cc2ccccc2)C(c2cccc(Cl)c2Cl)C2=C(CS(=O)(=O)c3ccccc3S2(=O)=O)N1 (stereo not shown) [Compound 2, 1H-[1,5]Benzodithiepino[3,2-b]pyridine-3-carboxylic acid, 4-(2,3-dichlorophenyl)-4,11-dihydro-2-methyl, 2-[methyl(phenylmethyl)amino]ethyl ester, 5,5,10,10-tetraoxide] | 20 | –
COC(=O)C1=C(C)NC2=C(C1c1ccccc1[N+](=O)[O-])S(=O)(=O)c1ccccc1S(=O)(=O)C2 (stereo not shown) [Compound 10] | 36 | –
CC1=C(C(=O)OCCOC(=O)C2CCCCC2)C(c2c(F)cccc2Cl)C2=C(CS(=O)(=O)c3ccccc3S2(=O)=O)N1 (stereo not shown) [Compound 24, 1H-[1,5]benzodithiepino[3,2-b]pyridine-3-carboxylic acid, 4-(2-chloro-6-fluorophenyl)-4,11-dihydro-2-methyl-, 2-[(cyclohexylcarbonyl)oxy]ethyl ester, 5,5,10,10-tetraoxide] | – | 43
CC1=C(C(=O)OCCOC(=O)C(C)c2ccc(CC(C)C)cc2)C(c2c(F)cccc2Cl)C2=C(CS(=O)(=O)c3ccccc3S2(=O)=O)N1 (stereo not shown) [Compound 32] | – | 618
CC1=C(C(=O)OCCN(C)Cc2ccccc2)C(c2cccc(Cl)c2)C2=C(CS(=O)(=O)c3ccccc3S2(=O)=O)N1 (stereo not shown) [Compound 4, 1H-[1,5]Benzodithiepino[3,2-b]pyridine-3-carboxylic acid, 4-(3-chlorophenyl)-4,11-dihydro-2-methyl, 2-[methyl(phenylmethyl)amino]ethyl ester, 5,5,10,10-tetraoxide] | 22 | –
COC(=O)C1=C(C)NC2=C(C1c1cccc([N+](=O)[O-])c1)S(=O)(=O)c1ccccc1S(=O)(=O)C2 (stereo not shown) [Compound 15, 1H-[1,5]Benzodithiepino[3,2-b]pyridine-3-carboxylic acid, 4,11-dihydro-2-methyl-4-(3-nitrophenyl), methyl ester, 5,5,10,10-tetraoxide] | 20 | –
COC(=O)C1=C(C)NC2=C(C1c1cccc(Cl)c1Cl)S(=O)(=O)c1ccccc1S(=O)(=O)C2 (stereo not shown) [Compound 8, 1H-[1,5]Benzodithiepino[3,2-b]pyridine-3-carboxylic acid, 4-(2,3-dichlorophenyl)-4,11-dihydro-2-methyl, methyl ester, 5,5,10,10-tetraoxide] | 22 | –
CC1=C(C(=O)OCCN(C)Cc2ccccc2)C(c2ccccc2Cl)C2=C(CS(=O)(=O)c3ccccc3S2(=O)=O)N1 (stereo not shown) [Compound 19, 1H-[1,5]Benzodithiepino[3,2-b]pyridine-3-carboxylic acid, 4-(2-chlorophenyl)-4,11-dihydro-2-methyl, 2-[methyl(phenylmethyl)amino]ethyl ester, 5,5,10,10-tetraoxide] | 18 | –
COc1ccc2cc([C@H](C)C(=O)OCCOC(=O)C3=C(C)NC4=C(C3c3c(F)cccc3Cl)S(=O)(=O)c3ccccc3S(=O)(=O)C4)ccc2c1 (stereo partly drawn) [Compound 31, 1H-[1,5]benzodithiepino[3,2-b]pyridine-3-carboxylic acid, 4-(2-chloro-6-fluorophenyl)-4,11-dihydro-2-methyl-, 2-[[(2S)-2-(6-methoxy-2-naphthalenyl)-1-oxopropyl]oxy]ethyl ester, 5,5,10,10-tetraoxide] | – | 209
CC1=C(C(=O)OCCOC(=O)C(C)(C)C)C(c2c(F)cccc2Cl)C2=C(CS(=O)(=O)c3ccccc3S2(=O)=O)N1 (stereo not shown) [Compound 28, 1H-[1,5]benzodithiepino[3,2-b]pyridine-3-carboxylic acid, 4-(2-chloro-6-fluorophenyl)-4,11-dihydro-2-methyl-, 2-(2,2-dimethyl-1-oxopropoxy)ethyl ester, 5,5,10,10-tetraoxide] | – | 370
CC1=C(C(=O)OCCO)C(c2c(F)cccc2Cl)C2=C(C[S+]([O-])c3ccccc3S2(=O)=O)N1 (stereo not shown) [Compound 20] | – | 306
CC1=C(C(=O)OCCOC(=O)CCCCCCCCCc2ccccc2)C(c2c(F)cccc2Cl)C2=C(CS(=O)(=O)c3ccccc3S2(=O)=O)N1 (stereo not shown) [Compound 36] | – | 116000
CC1=C(C(=O)OCCN(C)Cc2ccccc2)C(c2c(F)c(F)c(F)c(F)c2F)C2=C(CS(=O)(=O)c3ccccc3S2(=O)=O)N1 (stereo not shown) [Compound 12, 1H-[1,5]Benzodithiepino[3,2-b]pyridine-3-carboxylic acid, 4,11-dihydro-2-methyl-4-(pentafluorophenyl), 2-[methyl(phenylmethyl)amino]ethyl ester, 5,5,10,10-tetraoxide] | 21 | –
CC1=C(C(=O)OCCN(C)Cc2ccccc2)C(c2cccc([N+](=O)[O-])c2)C2=C(CS(=O)(=O)c3ccccc3S2(=O)=O)N1 (stereo not shown) [Compound 16, 1H-[1,5]Benzodithiepino[3,2-b]pyridine-3-carboxylic acid, 4,11-dihydro-2-methyl-4-(3-nitrophenyl), 2-[methyl(phenylmethyl)amino]ethyl ester, 5,5,10,10-tetraoxide] | 24 | –
COC(=O)C1=C(C)NC2=C(C1c1cccc(Cl)c1)S(=O)(=O)c1ccccc1[S+]([O-])C2 (stereo not shown) [Compound 6, 1H-[1,5]Benzodithiepino[3,2-b]pyridine-3-carboxylic acid, 4-(3-chlorophenyl)-4,11-dihydro-2-methyl, methyl ester, 5,5,10-trioxide] | 20 | –
COC(=O)C1=C(C)NC2=C(C1c1cccc(C(F)(F)F)c1F)S(=O)(=O)c1ccccc1S(=O)(=O)C2 (stereo not shown) [Compound 13, 1H-[1,5]Benzodithiepino[3,2-b]pyridine-3-carboxylic acid, 4-[2-fluoro-3-(trifluoromethyl)phenyl]-4,11-dihydro-2-methyl, methyl ester, 5,5,10,10-tetraoxide] | 14 | –
COC(=O)C1=C(C)NC2=C(C1c1ccccc1Cl)S(=O)(=O)c1ccccc1S(=O)(=O)C2 (stereo not shown) [Compound 5, 1H-[1,5]Benzodithiepino[3,2-b]pyridine-3-carboxylic acid, 4-(2-chlorophenyl)-4,11-dihydro-2-methyl, methyl ester, 5,5,10,10-tetraoxide] | 9 | –
